# Experimental data taken from US20080027139A1, “Use of Alpha-Ketoglutarate and Related Compounds” (priority 2004, published 2008).
# Like-named read-outs stand apart in the source and are kept apart here.
# Tests used:
# [1] = test system: sham-operated (SHO) and ovariectomized (OVX) Wistar female rats
# Description: A study was conducted on Wistar female rats kept in standard weather conditions. […] Afterwards the female rates were randomly divided into 2 groups: ovariectomy were performed in all animals in group one (OVX) and placebo operation were done in the second group (SHO). Surgical procedures were performed under general anesthesia (rometare, ketamine and atropine in doses 2, 10 and 0.05 mg/kg of bodily weight respectively.
# Studies were conducted on the animals from the two groups: females received experimental solutions from the seventh day following the operation (simulation of the first period of the lack of activity of the ovarian hormones) (Experiment I 1), females aged 7 months with a 5 month period in which there was no activity of hormonal ovaries (simulation of the period with a prolonged absence of the activity of ovarian hormones) (Experiment I 2) (Tab. 2).
# In each of Experiments I1 and I2 40 animals was used for each experimental doses making a total of 240 animals.
# Blood samples were collected immediately after slaughter, and the plasma removed by centrifugation was stored in a safe place for further biochemical analyses.
# The entire cholesterol concentration was determined by means of commonly available analytical equipment using the spectrophotometric method.
# [2] = test system: Wistar rats with diet-induced hypercholesterolaemia; conditions: day 120; AKG doses 0.1 and 1 from day 61 for 60 days; p<0.05
# Description: Afterwards all animals received fodder enriched with 1% cholesterol (Sigma-Aldrich, Germany) and 10% lard in order to obtain hypercholesterolaemia. • 12 rats (6 females and 6 males) were killed on day 0 as an introduction control. • 12 rats (6 females and 6 males) were killed at day 30. • 12 rats (6 females and 6 males) were killed at day 60.
# Remaining 48 rats were divided into 3 groups and the experiment continued for another 60 days on cholesteremic diet: • 1. Placebo group—24 rats (12 females and 12 males) • 2. 1 g AKG group—12 rats (6 females and 6 males) • 3. 0.1 g AKG group—12 rats (6 females and 6 males)
# During the first 60 days of using cholesterol and lard enriched diet, the lipid profile was checked three times to determine the concentration of the entire cholesterol, the fraction of LDL and HDL and triglycerides. Measuring tests were performed a day before the said diet was commenced (day 0) and subsequently after 30 and 60 days of the application of the said diet. On the sixty first day of the experiment animals were divided into two groups: one receiving the placebo solution and the other receiving AKG solution (AKG in doses 0.1 and 1 (Table 9). All the time animals continued to receive experimental fodder. During the period when placebo and AKG solutions were administered, the lipid profile was checked on the 120th day of the experiment. […]
# [3] = test system: volunteers with a relatively high level of cholesterol
# Text: The experiment lasted for the total of 42 days. […] During the experiment no quantitative or qualitative restrictions regarding the diet were introduced. In the period from day 1 to day 28 the patients' lipid profile was checked every seven days in order to determine the concentration of cholesterol, fractions of LDL and HDL and triglycerides. […] Subsequent measurements of the lipid profile were taken on 42nd day of the experiment.
# [4] = Volunteer 1, 1st week, chewable tablets of 1.28 g calcium alpha-ketoglutarate (1 g AKG), two tablets three times a day, day 1-28
# [5] = Volunteer 1, 2nd week, calcium alpha-ketoglutarate tablets (1 g AKG), two tablets three times a day
# [6] = Volunteer 1, 3rd week, calcium alpha-ketoglutarate tablets (1 g AKG), two tablets three times a day
# [7] = Volunteer 1, 4th week, calcium alpha-ketoglutarate tablets (1 g AKG), two tablets three times a day
# [8] = Volunteer 1, 6th week, after 2 weeks without AKG
# [9] = Volunteer 2, 1st week, chewable tablets of 1.28 g calcium alpha-ketoglutarate (1 g AKG), two tablets three times a day, day 1-28
# [10] = Volunteer 2, 2nd week, calcium alpha-ketoglutarate tablets (1 g AKG), two tablets three times a day
# [11] = Volunteer 2, 3rd week, calcium alpha-ketoglutarate tablets (1 g AKG), two tablets three times a day
# [12] = Volunteer 2, 4th week, calcium alpha-ketoglutarate tablets (1 g AKG), two tablets three times a day
# [13] = Volunteer 2, 6th week, after 2 weeks without AKG
# [14] = two volunteers, after a 14 day break in administering the preparation
compound,measurement,setting,value
"O=C(O)CCC(=O)C(=O)O [AKG, alpha-ketoglutaric acid]",effect on concentration of the entire cholesterol (in words),"[1]; OVX females, AKG dose 0.01 during 60 days, Experiment I-1, p=0.04, reaching the level of the control group",statically significant decrease
same,effect on concentration of the entire cholesterol (in words),"[1]; both doses 0.01 and 0.1, OVX and SHO groups, Experiment I-2 (prolonged lack of ovarian hormones)",statistically significant decrease
same,effect on concentration of the entire cholesterol (in words),"[1]; dose 1, females after ovariectomy relative to the control group, long-term absence of ovarian hormones (Experiment I-2)",decreased
same,effect on concentration of the entire cholesterol (in words),"[1]; dose 1, females after ovariectomy relative to the control group, short-term absence of ovarian hormones (Experiment I-1)",decreased
same,effect on concentration of HDL (in words),[2],increase
same,HDL level,[3]; [4],45 mg/dL
same,Total cholesterol level,[3]; [4],194 mg/dL
same,Triglycerides level,[3]; [4],197 mg/dL
same,HDL level,[3]; [5],41 mg/dL
same,Total cholesterol level,[3]; [5],196 mg/dL
same,Triglycerides level,[3]; [5],304 mg/dL
same,HDL level,[3]; [6],42 mg/dL
same,Total cholesterol level,[3]; [6],171 mg/dL
same,Triglycerides level,[3]; [6],269 mg/dL
same,HDL level,[3]; [7],48 mg/dL
same,Total cholesterol level,[3]; [7],157 mg/dL
same,Triglycerides level,[3]; [7],259 mg/dL
same,HDL level,[3]; [8],33 mg/dL
same,Total cholesterol level,[3]; [8],197 mg/dL
same,Triglycerides level,[3]; [8],375 mg/dL
same,HDL level,[3]; [9],35 mg/dL
same,Total cholesterol level,[3]; [9],190 mg/dL
same,Triglycerides level,[3]; [9],122 mg/dL
same,HDL level,[3]; [10],44 mg/dL
same,Total cholesterol level,[3]; [10],213 mg/dL
same,Triglycerides level,[3]; [10],101 mg/dL
same,HDL level,[3]; [11],40 mg/dL
same,Total cholesterol level,[3]; [11],199 mg/dL
same,Triglycerides level,[3]; [11],199 mg/dL
same,HDL level,[3]; [12],42 mg/dL
same,Total cholesterol level,[3]; [12],189 mg/dL
same,Triglycerides level,[3]; [12],187 mg/dL
same,HDL level,[3]; [13],40 mg/dL
same,Total cholesterol level,[3]; [13],215 mg/dL
same,Triglycerides level,[3]; [13],220 mg/dL
same,effect on concentration of HDL (in words),"[3]; two volunteers, 28 days of tablets containing 1 g of AKG, 2 tablets 3 times a day",No significant effect
same,effect on concentration of the entire cholesterol (in words),"[3]; two volunteers, after 28 days of tablets containing 1 g of AKG, 2 tablets 3 times a day",decrease
same,change of concentration of HDL fraction after stopping (in words),[3]; [14],statistically significant decrease
same,change of concentration of the entire cholesterol after stopping (in words),[3]; [14],increased
same,change of concentration of triglycerides after stopping (in words),[3]; [14],significant increase
same,effect on concentration of triglycerides (in words),"[3]; two volunteers, from day 1 to day 28 of AKG tablets",increase
